A word on the melting point: it is the temperature, or range, at which the solid turns liquid.

Molecule `CC1(CC(=O)O)OCCc2c1[nH]c1ccc(O)cc21` (stereo not drawn) came in with a melting point of 170 to 171 °C. The figure for `CC(=O)Nc1nc2c(s1)-c1nc(N3CCCC3=O)ncc1CC2` is more than 160 °C; for `O=C(c1ccc(Cc2c(Cl)cc(NN=Cc3ccccc3)cc2Cl)cc1)c1cnc(Cl)c(Cl)c1` it is 173 to 175 °C.

For the molecule `CCOC(=O)[C@H](CC(C)C)NC(=O)[C@@H]1CCCN1C(=O)OCc1ccccc1`, the melting point is 60 to 64 °C. The figure for `O=S(=O)(CF)c1ccc(C2=C(c3ccc(F)cc3)CCC2)cc1` is 123 to 124 °C; for `Cc1cc(CCCCCOc2ccc(C3=NCCO3)cc2)no1` it is 91 to 92 °C; for `CCCC1(CCC)CCC2(CC1)CC(=O)OC(=O)C2` it is 91 to 93 °C.

In turn, `OCCN1CCN(C2=Nc3cc(F)ccc3Nc3ccsc32)CC1` returned a melting point of 205 to 210 °C.

`CNC(=O)c1c(I)c(C#N)c(I)c(C(=O)OCC(O)CO)c1I` (stereo not drawn) gave a melting point of 117 to 120 °C. Then `CCc1ccccc1Cn1cc(-c2cn(C3CC(O)C(CO)O3)c(=O)[nH]c2=O)nn1` (stereo not drawn), with 169 to 172 °C; and `O=c1cc(-c2ccc3c(c2)CCCC3)[nH]c2ccccc12`, with 241 to 250 °C. Molecule `O=C1CC2CCC(=O)N2c2cc(O)cc(O)c21` (stereo not drawn) showed a melting point of 254 to 256 °C. Then `CS(=O)(=O)Nc1cc(C(=O)NNC(=O)c2occ(-c3ccccc3)c2-c2ccccc2)ccc1O`, with 230 to 231 °C; and `COc1ccc(-c2cnc(-c3ccccc3)[nH]c2=O)cc1OC`, with 230 °C. `COCCNC1CCc2cc(Nc3ncc(Cl)c(Nc4c(OC)ccc5c4CN(S(C)(=O)=O)CC(=O)N5)n3)c(OC)cc2CC1` (stereo not drawn) gave a melting point of 110 to 114 °C. `COc1ccc(CS(=O)(=O)c2cc3c(OC)cc(OC)cc3oc2=O)cc1` gave a melting point of 183 to 185 °C.

On to `CN1CCN(c2ccc(NC(=O)n3ccc4cc(Oc5cc(CC(N)=O)ncn5)ccc43)cc2C(F)(F)F)CC1`, for which the melting point was 238 to 240 °C.

`CCOC(=O)C1=C(COCc2nnn[nH]2)NC(C)=C(C(=O)OC)C1c1cccc(Cl)c1Cl` (stereo not drawn) displayed a melting point of 112 to 114 °C.

As for `CCC(Oc1ccc(CCC(=O)c2ccc(-c3ccc(C(F)(F)F)cc3)s2)cc1Br)C(=O)O` (stereo not drawn), the melting point lay within 126 to 128 °C. The figure for `CCCCCCCCCCCCCC/C=C\CN1C(=O)c2ccccc2C1=O` is 56 to 60 °C; for `CN(C)Cc1nc(CO)nn1-c1ccc(Cl)cc1C(O)c1ccccc1` (stereo not drawn) it is 121 to 123 °C. The molecule `O=C(O)c1ccc2c(oc3ccccc32)c1C(=O)O` showed a melting point of 260 to 262 °C. The figure for `Cc1ccc2[nH]c(C(=O)OCc3ccccc3)cc2c1` is 150 to 152 °C; for `COP(=O)(OC)C(O)=Cc1ccc(Cl)cc1` it is 89 to 92 °C; for `Cc1ccc(C(N)=S)c2ccccc12` it is 143 to 145 °C. Then `O=C(O)C1=C2OCOc3cccc1c32`, with 125 °C; and `Clc1ccc2[nH]c3c(c2c1)CCC1(C3)OCCO1`, with 128 to 138 °C; and `C=C1C(=C)C2OC1c1cc3cccc(OC)c3cc12` (stereo not drawn), with 154 to 155 °C.

The molecule `COC(=O)c1ccccc1NC(=O)NCc1ccccc1` returned a melting point of 140 to 141 °C. `CS(=O)(=O)N(c1ccc(C#Cc2cnn3c(C(F)(F)F)cc(-c4ccc(C(F)(F)F)cc4)nc23)cn1)S(C)(=O)=O` yielded a melting point of 250 to 251 °C. Consider `O=C(Oc1cccc2ccccc12)n1c2c(c(=O)n(C3CCCCO3)c1=O)CCC2` (stereo not drawn), for which the melting point was 160 °C. Molecule `CCCCCCCCCCCCSc1ccc2nn(-c3cc(C(C)(C)C)cc(C(C)(C)C)c3O)nc2c1` yielded a melting point of 62 to 64 °C.

`CN1CCC(=O)C(=C(c2ccccc2)c2ccccc2)C1` yielded a melting point of 129 to 131 °C. Regarding `COc1ccc(C2=NN(C3CCCC3)C(=O)[C@H]3CC=CC[C@@H]23)cc1O` (relative stereo), the melting point was 142 to 144 °C. Then `Cc1sc(C(=O)O)cc1NC(=O)NCc1ccccc1`, with 259 to 260 °C; and `Cn1cc(C2=C(C3CCCCC3)C(=O)NC2=O)c2ccccc21`, with 224 to 225 °C. Then `COc1cc(Nc2nccc(-c3ccc([N+](=O)[O-])cc3)n2)cc(OC)c1OC`, with 196 °C; and `NC(=O)c1ccc(OCC(O)CCCl)cc1` (stereo not drawn), with 150 to 153 °C; and `CCOC(=O)NCC#N`, with 49 °C.

Molecule `O=CNC[C@H]1CN(c2ccc(N3CCOCC3)c(F)c2)C(=O)O1` came in with a melting point of 44 to 47 °C. The figure for `COc1ccc2c3c1OC1C[C@@H](O)C=CC31CCN(C(=O)NC(C)C)C2` (stereo partly drawn) is 106 to 108 °C; for `c1ccc2cc(OCCCNN3CCCCC3)ccc2c1` it is 78 °C.

Consider `COc1cc2c3ccc(OC)c(OC)c3c(=O)n(Cc3ccccc3)c2cc1OC`, for which the melting point lay in the range of 183 to 184 °C. The figure for `O=C1CC(SCc2ccccc2)C(O)(c2ccccc2)C(SCc2ccccc2)C1` (stereo not drawn) is 120 °C; for `CCOC(=O)N1CCC(O)(c2cc(F)c(Br)cc2F)CC1` it is 133 to 136 °C.

Molecule `Cn1c2c(ccc1=O)C(NCCc1ccc3ccccc3c1)CCC2` (stereo not drawn) yielded a melting point of 113 to 115 °C. The figure for `O=C(NO)c1ccc(CNC(=O)c2[nH]c(-c3ccccc3)cc2-c2ccc(O)cc2)cc1` is 139 to 141 °C; for `CC(C)N(CC1CCCCN1CCNC(=O)N1c2ccccc2C(=O)Nc2cccnc21)C(C)C` (stereo not drawn) it is 181 to 182 °C. On to `CC[C@H]1C(=O)N([Si](C)(C)C(C)(C)C)[C@H]1C(=O)C=[N+]=[N-]`, for which the melting point lay within 88 to 89 °C. In turn, `CS(=O)(=O)CCOC(=O)NCCSc1ccc2nccn2n1` registered a melting point of 91 to 93 °C.

In turn, `Cc1cc(C2=NN(c3nncs3)C(C)Cc3cc4c(cc32)OCO4)ccc1[N+](=O)[O-]` (stereo not drawn) displayed a melting point of 182 to 189 °C. The figure for `CCN(CC)C(=O)c1ncccc1OC(=S)N(CC)CC` is 70 to 72 °C.

Regarding `CN(C)c1ccc2cc(-c3ccnc(N)c3C#N)ccc2c1`, the melting point was 256 to 257 °C. Take `Cc1cccc(C(=O)Nc2nc(C(Cl)(Cl)Cl)ns2)c1`: the melting point is 142 °C.

As to `Cc1cc2cc(NS(C)(=O)=O)cc(-c3cc(Cl)nc4ccccc34)c2n1CC(=O)O`, the melting point was in the range of 195 to 198 °C. Then `COC(=O)c1ccccc1Oc1ccccc1[N+](=O)[O-]`, with 49 to 50 °C; and `CCC(=NO)c1ccc(Oc2cc(F)cc([C@@]3(OC)CCO[C@@H]3C)c2)cc1` (racemic), with 94 to 96 °C. Then `N#Cc1c(N2CCCCC2)cc(-c2ccco2)c2c1Cc1ccccc1-2`, with 160 to 162 °C. Then `CC(=O)c1ccc(Oc2ccc([N+](=O)[O-])cc2C#N)cc1`, with 135 to 136 °C.

`C=CC(=O)NC(Cc1ccccc1)C(=O)O` (stereo not drawn): the melting point lay in the range of 136 to 138 °C. The figure for `Cc1cc(CCCOc2c(C)cc(-c3noc(CC(F)(F)F)n3)cc2C)on1` is 84 to 85 °C; for `O=c1c(O)c(-c2ncn(Cc3ccc(F)cc3)n2)oc2ccccc12` it is 260 to 262 °C. `Oc1ccc(N2CCN(c3nc4ccccc4o3)CC2)cc1` registered a melting point of 161 to 163 °C.

In turn, `N#Cc1cc(-c2ccoc2)c2ccc(OCc3cccc(-c4ccc(Cl)cc4)n3)cc2c1` registered a melting point of 174 to 177 °C. The figure for `Oc1c2c(c3nccc4c3c1CCC4)CCCC2` is 224 °C. Then `CCOC(=O)c1ncn(C(c2ccccc2)(c2ccccc2)c2ccccc2)c1C`, with 188 to 190 °C; and `O=C(O)CCCC(=O)c1ccc(O)c(O)c1`, with 210 to 215 °C. As to `CCOC(=O)c1ncc(Cl)cc1F`, the melting point fell in the range of 48 to 50 °C.

In the case of `COC(=O)Nc1nc(C)c(-c2nc3ccccc3c(=O)n2-c2ccccc2)s1`, the melting point is more than 275 °C. For `FC(F)C(F)(F)Oc1cccc(Nc2nccc(-c3ccncc3)n2)c1`, the melting point was 191 to 192 °C.

Regarding `C#CCOc1cc(-c2ncnc(C(Cl)Cl)c2Cl)c(F)cc1Cl`, the melting point is 86 to 88 °C. For `O=[N+]([O-])c1ccc(CP2(=O)OCCO2)cc1`, the melting point was 144 to 145 °C. The figure for `CN(C)C1CCCCCCCCCCC1N(C)C(=O)c1ccc(C(F)(F)F)cc1` (stereo not drawn) is 69 to 70 °C; for `CCOC(=O)N1CCN(c2cc3nc(C(C)(C)C)sc3cc2[N+](=O)[O-])CC1` it is 100 to 102 °C; for `COc1ccc(S(=O)(=O)N2CCC(N3N=C(c4ccc(OC)c(OC)c4)CCC3=O)CC2)cc1` it is 197 to 198 °C. Then `O=C(O)CCCCCn1c2ccccc2c(=O)c2cc(Br)ccc21`, with 213 °C; and `CN(CC(=O)O)C(=S)c1ccc(Cl)cc1`, with 72 to 73 °C. Then `Cc1cc(-c2nc3cccnn3c2-c2ccnc(NC(=O)c3ccc(C(F)(F)F)nc3)c2)ccc1F`, with 225 to 226 °C; and `COc1cc(NC2=NCC3(CN4CCC3CC4)O2)ncn1` (stereo not drawn), with 80 to 85 °C; and `Cn1cc(C(=O)NCCCN)c(Nc2ccc(I)cc2F)cc1=O`, with 201 to 206 °C. As to `CCOC(=O)C(Cc1ccc(OC)c(OC)c1)NC(=O)c1ccc(OC(C)C)cc1` (stereo not drawn), the melting point was in the range of 126 to 128 °C. Then `CC(C)(C)OC(=O)Nc1ccc(C#Cc2ccc(OC(F)(F)F)cc2)cc1N`, with 167 to 169 °C; and `COc1cccc2c(O)c(C(=O)NCCCCN3CCN(C(c4ccccc4)c4ccccc4)CC3)cnc12`, with 209 to 212 °C. Then `CCc1noc(-c2ccc(OCCC3CCN(c4ccc(C)nn4)CC3)cc2)n1`, with 122 °C; and `COc1cc(OC(C)C)cc2oc(C)cc(=S)c12`, with 113 to 114 °C. Then `CC(C)Oc1ccc(-c2nn(Cc3oc4cccc(F)c4c(=O)c3-c3cccc(F)c3)c3ncnc(N)c23)cc1F`, with 156 to 159 °C; and `COC1C(C)OC(ON(C)Cc2ccc(-c3ncn(-c4ccc(OC(F)(F)F)cc4)n3)cc2)C(OC)C1OC` (stereo not drawn), with 93 to 100 °C; and `CCOC(=O)C(C#N)(CCCN(C)CCc1ccc(C(=O)OC)cc1)c1ccc(OC)c(OC)c1` (stereo not drawn), with 75 to 77 °C.

The values are drawn from a melting point compilation (Tetko et al.; mined from patent text by program, amines drawn as free bases though some values may be those of a salt).
